PMC2228184 (British Journal of Cancer, 1997)
Read-outs that look alike come from different tables or passages of the source.

Key:
[1] = Plasma pharmacokinetics of etoposide after oral administration (HPLC); details: human
From the text: Topoisomerases are essential nuclear enzymes that alter the topology of DNA during DNA metabolism by cleavage of DNA strands, strand passage and religation (Wang, 1985). Two major topoisomerases, types I and H, have been identified in all mammalian cells, and induce single- and double-strand breaks respectively. […] They have different sites of binding DNA and play a different role in the cell cycle. Received 15 November 1996 Revised 19 February 1997 Accepted 10April 1997 Correspondence to: VMM Herben, Slotervaart Hospital, Department of Pharmacy and Pharmacology, Louwesweg 6, 1066 EC Amsterdam, The Netherlands Topotecan (Hycamtin), a semisynthetic water-soluble derivative of camptothecin, was the first topoisomerase I-targeting drug to undergo clinical testing since the discontinuation of the clinical development of sodium camptothecin in the early 1970s. […] In view of topotecan's unique mechanism of action and important anti-tumour effects as single agent, recent studies have focused on combination therapies with other effective anti- cancer agents. The combination of topoisomerase I inhibitors with topoiso- merase II poisons is in theory an attractive strategy. As resistance to inhibition of one class of topoisomerase enzymes is accompa- nied with an elevated sensitivity to the other class of topoiso- merase inhibitors in vitro (Tan et al, 1989; Sugimoto et al, 1990), a combined administration regimen of inhibitors of both topoiso- merases could effectively kill tumour cells. […] The recommended dose for this schedule is 1.5 mg m-2 day-1 (Rowinsky et al, 1991; Verweij et al, 1993). […] Other eligibility criteria included a Zubrod-ECOG-WHO performance status < 2, anticipated life expectancy of 2 3 months and age 2 18 years. Previous anti-cancer chemotherapy had to be discontinued for at least 4 weeks before entry into the study or 6 weeks in cases of pretreatment with a nitrosourea or mitomycin C. All patients had acceptable bone marrow function white blood cell (WBC) ? […] The study protocol was approved by the Medical Ethics Committee of the hospital, and all patients gave written informed consent. Treatment plan and study design Topotecan (SmithKline Beecham Pharmaceuticals, King of Prussia, PA, USA) was supplied by the National Cancer Institute as a lyophilized light yellow powder in vials containing 5 mg of topotecan (as the free base), 60 mg of mannitol, 25 mg of tartaric acid and 2 M hydrochloric acid and/or 0.05 M sodium hydroxide for pH adjustment to 3.0. The content of each vial was reconsti- tuted with 2 ml of sterile water for injection, USP, yielding a 2.5 mg ml-1 solution of topotecan. The appropriate dosage of the drug was diluted in 50 or 100 ml of 0.9% sodium chloride and was administered intravenously over 30 min by a syringe pump. […]

[2] = tested on: patients with advanced solid tumours; details: human, in vivo
From the text: (§1) Topoisomerases are essential nuclear enzymes that alter the topology of DNA during DNA metabolism by cleavage of DNA strands, strand passage and religation (Wang, 1985). Two major topoisomerases, types I and H, have been identified in all mammalian cells, and induce single- and double-strand breaks respectively. […] They have different sites of binding DNA and play a different role in the cell cycle. Received 15 November 1996 Revised 19 February 1997 Accepted 10April 1997 Correspondence to: VMM Herben, Slotervaart Hospital, Department of Pharmacy and Pharmacology, Louwesweg 6, 1066 EC Amsterdam, The Netherlands Topotecan (Hycamtin), a semisynthetic water-soluble derivative of camptothecin, was the first topoisomerase I-targeting drug to undergo clinical testing since the discontinuation of the clinical development of sodium camptothecin in the early 1970s. […] In view of topotecan's unique mechanism of action and important anti-tumour effects as single agent, recent studies have focused on combination therapies with other effective anti- cancer agents. The combination of topoisomerase I inhibitors with topoiso- merase II poisons is in theory an attractive strategy. As resistance to inhibition of one class of topoisomerase enzymes is accompa- nied with an elevated sensitivity to the other class of topoiso- merase inhibitors in vitro (Tan et al, 1989; Sugimoto et al, 1990), a combined administration regimen of inhibitors of both topoiso- merases could effectively kill tumour cells. […] The recommended dose for this schedule is 1.5 mg m-2 day-1 (Rowinsky et al, 1991; Verweij et al, 1993). […] Other eligibility criteria included a Zubrod-ECOG-WHO performance status < 2, anticipated life expectancy of 2 3 months and age 2 18 years. Previous anti-cancer chemotherapy had to be discontinued for at least 4 weeks before entry into the study or 6 weeks in cases of pretreatment with a nitrosourea or mitomycin C. All patients had acceptable bone marrow function white blood cell (WBC) ? […]

[3] = tested on: patients with advanced solid tumours; details: both, human, in vivo
Experimental: 0.3 h. […] 2.7 1 h-1 m-2 with a steady-state volume of distribution of 36.7 ? 6.2 I m-2. […] 1.0 h after infusion. […] 0.54 and 1.23 ? […] 1.2 and 2.3 ? 1.0 h after ingestion of 20 and 40 mg respectively. […] Other eligibility criteria included a Zubrod-ECOG-WHO performance status < 2, anticipated life expectancy of 2 3 months and age 2 18 years. Previous anti-cancer chemotherapy had to be discontinued for at least 4 weeks before entry into the study or 6 weeks in cases of pretreatment with a nitrosourea or mitomycin C. All patients had acceptable bone marrow function white blood cell (WBC) ? 4 x 10^9 1-1 and platelets 2 100 x 109 11; normal hepatic function, serum bilirubin < 1.5 mg dl-' (25 pmol 1-1) and other liver function tests < twice the normal upper limit or < five times when related to liver metastases, prothrombin or thrombotest within normal limits; normal renal function, serum creatinine < 1.4 mg dl-1 (120 gmol 1-1). The study protocol was approved by the Medical Ethics Committee of the hospital, and all patients gave written informed consent. Treatment plan and study design Topotecan (SmithKline Beecham Pharmaceuticals, King of Prussia, PA, USA) was supplied by the National Cancer Institute as a lyophilized light yellow powder in vials containing 5 mg of topotecan (as the free base), 60 mg of mannitol, 25 mg of tartaric acid and 2 M hydrochloric acid and/or 0.05 M sodium hydroxide for pH adjustment to 3.0. The content of each vial was reconsti- tuted with 2 ml of sterile water for injection, USP, yielding a 2.5 mg ml-1 solution of topotecan. The appropriate dosage of the drug was diluted in 50 or 100 ml of 0.9% sodium chloride and was administered intravenously over 30 min by a syringe pump.

[4] = ref Clark et al, 1989; cited from earlier work
[5] = clinical; details: human, in vivo
From the text: Topoisomerases are essential nuclear enzymes that alter the topology of DNA during DNA metabolism by cleavage of DNA strands, strand passage and religation (Wang, 1985). Two major topoisomerases, types I and H, have been identified in all mammalian cells, and induce single- and double-strand breaks respectively. […] They have different sites of binding DNA and play a different role in the cell cycle. Received 15 November 1996 Revised 19 February 1997 Accepted 10April 1997 Correspondence to: VMM Herben, Slotervaart Hospital, Department of Pharmacy and Pharmacology, Louwesweg 6, 1066 EC Amsterdam, The Netherlands Topotecan (Hycamtin), a semisynthetic water-soluble derivative of camptothecin, was the first topoisomerase I-targeting drug to undergo clinical testing since the discontinuation of the clinical development of sodium camptothecin in the early 1970s. […] In view of topotecan's unique mechanism of action and important anti-tumour effects as single agent, recent studies have focused on combination therapies with other effective anti- cancer agents. The combination of topoisomerase I inhibitors with topoiso- merase II poisons is in theory an attractive strategy. As resistance to inhibition of one class of topoisomerase enzymes is accompa- nied with an elevated sensitivity to the other class of topoiso- merase inhibitors in vitro (Tan et al, 1989; Sugimoto et al, 1990), a combined administration regimen of inhibitors of both topoiso- merases could effectively kill tumour cells. […] The recommended dose for this schedule is 1.5 mg m-2 day-1 (Rowinsky et al, 1991; Verweij et al, 1993). […] Other eligibility criteria included a Zubrod-ECOG-WHO performance status < 2, anticipated life expectancy of 2 3 months and age 2 18 years. Previous anti-cancer chemotherapy had to be discontinued for at least 4 weeks before entry into the study or 6 weeks in cases of pretreatment with a nitrosourea or mitomycin C. All patients had acceptable bone marrow function white blood cell (WBC) ? […] The study protocol was approved by the Medical Ethics Committee of the hospital, and all patients gave written informed consent. Treatment plan and study design Topotecan (SmithKline Beecham Pharmaceuticals, King of Prussia, PA, USA) was supplied by the National Cancer Institute as a lyophilized light yellow powder in vials containing 5 mg of topotecan (as the free base), 60 mg of mannitol, 25 mg of tartaric acid and 2 M hydrochloric acid and/or 0.05 M sodium hydroxide for pH adjustment to 3.0. The content of each vial was reconsti- tuted with 2 ml of sterile water for injection, USP, yielding a 2.5 mg ml-1 solution of topotecan. The appropriate dosage of the drug was diluted in 50 or 100 ml of 0.9% sodium chloride and was administered intravenously over 30 min by a syringe pump. […] The regimen was intended to be repeated every 4 weeks. This could be changed during the study to either shorter or longer intervals depending on bone marrow recovery. Doses were escalated in an alternating way according to the scheme in Table 1. […] Treatment cycles were to be repeated at 3-week intervals. Patients were scheduled to receive at least two courses.

[6] = tested on: patients; details: cited from earlier work
[7] = Pharmacokinetics of N-desmethyltopotecan after 30-min infusion of topotecan; type: in vivo, human
From the text: as §1

[8] = set-up: method as in Johnson and Wood, personal communication; details: ref Johnson and Wood, personal communication; cited from earlier work

COc1cc([C@@H]2c3cc4c(cc3[C@@H](O[C@@H]3O[C@@H]5CO[C@@H](C)O[C@H]5[C@H](O)[C@H]3O)[C@H]3COC(=O)[C@H]23)OCO4)cc(OC)c1O [etoposide]
Cmax ([1]; 20 mg): 750 ± 540 nM
Tmax ([1]; 20 mg): 2.4 ± 1.2 h
Cmax ([1]; 40 mg): 1230 ± 570 nM
Tmax ([1]; 40 mg): 2.3 ± 1 h
correlation of pharmacokinetics (AUC, Cmax) or total dose with haematological toxicity [2]: did not yield any significant relationship
recommended dose for phase II clinical trials [3]: 40 mg bid
peak plasma concentrations associated with significant toxicity [4]: above 17 μmol l-1

CC[C@@]1(O)C(=O)OCc2c1cc1n(c2=O)Cc2cc3c(CN(C)C)c(O)ccc3nc2-1 [topotecan]
dose associated with a 50% decrease in ANC (D50) ([2]; both): 0.6 mg m-2 day-1
dose that could be given in combination, % of the single-agent dosage [3]: 67-83%
recommended dose for phase II clinical trials [3]: 1.0 mg m-2
half-life ([5]; both, iv): 126 ± 18 min
alpha half-life [5]: 3.8 ? 3.2 min
CL ([5]; 0.5 mg): 14.9 ? 1.8 l h-1 m-2
Vss ([5]; 0.5 mg): 34.0 ? 2.6 l m-2
t1/2 ([5]; 0.5 mg): 1.9 ? 0.1 h
CL ([5]; 1 mg): 13.4?2.6 l h-1 m-2
Vss ([5]; 1 mg): 36.4?5.2 l m-2
t1/2 ([5]; 1 mg): 2.2?0.3 h
CL ([5]; 1.25 mg): 15.6 ? 4.0 l h-1 m-2
Vss ([5]; 1.25 mg): 33.7 ? 6.7 l m-2
percentage of the administered dose recovered in the urine ([5]; 24 h): 41 ? 10%
percentage of the administered dose recovered in the urine, range ([5]; 24 h): 25-7 1
terminal (beta) half-life ([5]; iv): 2.1 ? 0.3 h
recommended dose, single agent ([6]; 30-min daily times five infusion every 3 weeks, ref Rowinsky et al, 1991, Verweij et al, 1993): 1.5 mg m-2 day-1
AUC50 (AUC associated with 50% decrease in ANC) ([6]; preceding single-agent phase I trial, Figure 2, ref Van Warmerdam et al, 1995): 79.2 h/nmol/L
recommended dose, single agent ([6]; previously treated patients, ref Saltz et al (1993)): 1.25 mg m-2 daily
recommended dose, single agent ([6]; previously untreated patients, ref Saltz et al (1993)): 1.5 mg m-2 daily
courses resulting in grades III or IV leucocytopenia and neutropenia ([6]; single agent 1.5 mg m-2 day-1, ref Rowinsky et al, 1991, Verweij et al, 1993): approximately 75%

CC[C@@]1(O)C(=O)OCc2c1cc1n(c2=O)Cc2cc3c(CNC)c(O)ccc3nc2-1 [N-desmethyltopotecan]
additional excretion in the urine as the metabolite ([7]; 24 to 48 hours after the fifth daily infusion, four patients): 0.4%
metabolite-to-topotecan ratio of maximal plasma levels ([7]; all dose levels): 0.5%
metabolite-to-topotecan AUC(t) ratio ([7]; all dose levels, up to 6 h post-infusion): 0.012
relation of AUC(t) to myelosuppression [2]: not related
anti-tumour activity compared with the parent compound [8]: slightly less anti-tumour activity
